Data set [1] in a line: in vivo. Conditions: Wistar, rat, po, 10 mg/kg.
A short description of data set [2]: in vivo. Conditions: Wistar, rat, iv, 1 mg/kg.
The species entered for another data set is Rattus norvegicus. Conditions: in vivo, iv, 1 mg/kg.
Data set [3] can be described thus: in vivo. Conditions: Wistar, rat, po, 10 mg/kg. This is another data set of the same source.
A short description of data set [4]: in vivo. The following applies: Wistar, rat, iv, 1 mg/kg. The source holds these as a separate data set.
Data set [5] can be described thus: Cmax in BALB/c mouse at 10 mg/kg, po. The data set is classed as ADME, organism-based. Set-up: dose 10 mg/kg, route oral. The following applies: in vivo.
The nature of data set [6]: Tmax in BALB/c mouse at 10 mg/kg, po. The data set is classed as ADME, organism-based. Details: dose 10 mg/kg, route oral. Conditions: in vivo.
The nature of data set [7]: Half life in cynomolgus monkey at 0.5 mg/kg, iv. The data set is classed as ADME, organism-based, Macaca fascicularis. Set-up: dose 0.5 mg/kg, route intravenous. The following applies: in vivo.
Data set [8] is described as follows: in vitro. Conditions: human, liver microsomes. On the technique in general: Microsomes from liver hold many membrane-bound enzymes, among them those of drug oxidation.
A short description of data set [9]: Terminal phase volume of distribution […] in cynomolgus monkey at 0.5 mg/kg, iv. Format: ADME, organism-based, Macaca fascicularis. Details: dose 0.5 mg/kg, route intravenous. Conditions: in vivo, read-out: Vbeta.
Data set [10] is described as follows: AUC in cynomolgus monkey at 0.5 mg/kg, iv. Set-up: dose 0.5 mg/kg, route intravenous. The data set is classed as ADME, organism-based, Macaca fascicularis. The following applies: plasma.
Data set [11] is described as follows: in vivo. Conditions: Wistar, rat, plasma, iv, 1 mg/kg.
The nature of data set [12]: Cmax in cynomolgus monkey at 1 mg/kg, po. The data set is classed as ADME, organism-based, Macaca fascicularis. Details: dose 1 mg/kg, route oral. Conditions: in vivo.
A short description of data set [13]: Volume of distribution at steady state in Beagle dog at 1 mg/kg, iv. The data set is classed as ADME, organism-based, Canis lupus familiaris. The following applies: in vivo, read-out: Vdss. Details: dose 1 mg/kg, route intravenous.
Data set [14] can be described thus: in vivo. Conditions: Wistar, rat, po, 10 mg/kg. This is another data set of the same source.
A short description of data set [15]: in vivo. The following applies: Wistar, rat, plasma, iv, 1 mg/kg. The source holds these as a separate data set.
A short description of data set [16]: Cmax in Beagle dog at 1 mg/kg, po. Format: ADME, organism-based, Canis lupus familiaris. Set-up: dose 1 mg/kg, route oral. The following applies: in vivo.
Data set [17] can be described thus: Half life in Beagle dog at 1 mg/kg, iv. Details: dose 1 mg/kg, route intravenous. Format: ADME, organism-based, Canis lupus familiaris. The following applies: in vivo.
Data set [18] is described as follows: Tmax in Beagle dog at 1 mg/kg, po. Set-up: dose 1 mg/kg, route oral. Format: ADME, organism-based, Canis lupus familiaris. The following applies: in vivo.
Data set [19] in a line: Volume of distribution at steady state in cynomolgus monkey at 0.5 mg/kg, iv. The data set is classed as ADME, organism-based, Macaca fascicularis. Details: dose 0.5 mg/kg, route intravenous. The following applies: in vivo, read-out: Vdss.
Data set [20] is described as follows: AUC in Beagle dog at 1 mg/kg, iv. Format: ADME, organism-based, Canis lupus familiaris. Details: dose 1 mg/kg, route intravenous. Conditions: plasma.
The nature of data set [21]: Plasma clearance in cynomolgus monkey at 0.5 mg/kg, iv. Set-up: dose 0.5 mg/kg, route intravenous. The data set is classed as ADME, organism-based, Macaca fascicularis.
A short description of data set [22]: Tmax in cynomolgus monkey at 1 mg/kg, po. Details: dose 1 mg/kg, route oral. The following applies: in vivo. Format: ADME, organism-based, Macaca fascicularis.
Data set [23] in a line: Plasma clearance in Beagle dog at 1 mg/kg, iv. Set-up: dose 1 mg/kg, route intravenous. Format: ADME, organism-based, Canis lupus familiaris.
Data set [24] in a line: Oral bioavailability in Beagle dog at 1 mg/kg. Format: ADME, organism-based, Canis lupus familiaris. Conditions: in vivo.
A short description of data set [25]: Oral bioavailability in cynomolgus monkey at 1 mg/kg. Format: ADME, organism-based, Macaca fascicularis. Conditions: in vivo.
Data set [26] in a line: in vitro. Conditions: rat, liver microsomes.
Data set [27] can be described thus: Terminal phase volume of distribution […] in Beagle dog at 1 mg/kg, iv. Set-up: dose 1 mg/kg, route intravenous. The data set is classed as ADME, organism-based, Canis lupus familiaris. Conditions: in vivo, read-out: Vbeta.

Structures are written as SMILES.

On to `CC(=O)Nc1cnc(-c2ccncc2)c(-c2ccco2)n1`, for which the bioavailability in the data set “in vivo [1]” worked out at 93%. In addition, the Vd in the data set “in vivo [2]” came to 0.8 L/kg. This compound gave an AUC in the data set listed under Rattus norvegicus of 751000 ng·h/mL. Further, the time to peak (Tmax) in the data set “in vivo [3]” came out at 1.1 h. The compound further had a half-life in the data set “in vivo [4]” of 0.4 h.
For the compound `O=C(Nc1cnc(-c2ccncc2F)c(-c2cccnc2)n1)C1CC1` [LAS101057], the Cmax in [5] is 17400 ng/mL; in data set [12], 5900 ng/mL; in the data set “in vivo [14]”, 7110 ng/mL; in data set [16] it was 820 ng/mL. In addition, the Tmax was 0.25 h in [6], 2 h in [18], 0.25 h in “in vivo [3]” and 3 h in data set [22]. Further, the half-life in [7] was 3.8 h; in data set [17] it was 8.6 h; in the data set “in vivo [4]”, 0.8 h. For the same compound, the metabolised at 0.5 h, 5 µM in “in vitro [8]” was determined as 5%; in the data set “in vitro [26]”, 13%. The Vd in [9] turned out to be 0.8 L/kg; in “in vivo [2]”, 1.2 L/kg; in data set [13], 0.8 L/kg; in [19] it was 0.4 L/kg; in [27], 0.9 L/kg. Further, the AUC in data set [10] was determined as 3400 ng·h/mL; in the data set “in vivo [15]”, 920 ng·h/mL; in data set [20], 13600 ng·h/mL. Also, the bioavailability in “in vivo [1]” is 100%; in data set [24], 98%; in data set [25], 100%. Moreover, the values for the clearance (in the data set “in vivo [11]”; in [21]; in data set [23]) were 18.3 mL/min/kg, 3.4 mL/min/kg and 1.7 mL/min/kg, respectively.

The bioavailability is the share of a dose that reaches the circulation, judged against a reference dose that is usually intravenous. A word on the AUC: it is concentration integrated over time. In general, Tmax refers to the time at which the peak concentration occurs. As a reminder, the half-life is the time needed for the level to fall by half in the phase considered. What is called Cmax is the maximum level reached in the sampled fluid or tissue. The clearance is a measure of how efficiently the substance is removed, as volume per time.

The record behind these values is ChEMBL document CHEMBL1671839 (ACS Med Chem Lett, 2011).
